The test concerns VEGF-induced pVEGFR. Put plainly: Western blot of VEGF-induced VEGFR phosphorylation in HUVECs. The class given is cell-based, human. The conditions noted are these: VEGF 40 ng/mL. The protocol:
EA.hy926 cells or HUVECs were seeded in 6-well plates and starved in a serum-free medium for 4 h after reaching 80% confluence. The compounds were added 30 min prior to stimulation with the corresponding ligands. EA.hy926 cells were incubated with BMP9 (1 ng/mL), BMP6 (50 ng/mL), TGF-β2 (1 ng/mL), or vehicle control for 1 h. For HUVECs, after 4 h starvation, the cells were pre-treated with or without the indicated compounds for 30 min and subsequently stimulated with VEGF (40 ng/mL) for 10 min. The cells were harvested and lysed in radioimmunoprecipitation assay (RIPA) lysis buffer containing 1× complete protease inhibitor cocktail (11836153001, Roche, Basel, Switzerland). The protein concentration was determined using the DC protein assay kit (5000111, Bio-Rad). After adding loading buffer, the samples were boiled and proteins separated by sodium dodecyl sulfate polyacrylamide gel electrophoresis (SDS-PAGE). […] The protein bands were quantified using ImageJ (National Institutes of Health, Bethesda, MD, USA).
Background: A western blot detects proteins with antibodies after separation by electrophoresis.

This is an account of results in PMC8231556, “Inhibiting Endothelial Cell Function in Normal and Tumor Angiogenesis Using BMP Type I Receptor Macrocyclic Kinase Inhibitors” (Cancers, 2021).

The structures appear in SMILES notation.

On to `CN1CCC(=O)NCCNc2ccn3ncc(c3n2)-c2cccc(c2)C1` [OD29], for which the “effect on VEGF-induced pVEGFR” value is given as “did not affect”.
